{"source": "patent US20230405095A1", "about": "“DOSING REGIMEN” (VIIV HEALTHCARE UK (NO. 7) LIMITED, priority 2022, published 2023)", "origin": "cited, not measured here", "key": {"[1]": {"details": "after injection of hyaluronidase; cited from earlier work"}, "[2]": {"details": "in vivo, sc; cited from earlier work"}}}
{"molecule": "hyaluronidase", "values": [{"measurement": "time until permeability barrier is restored to pre-injection levels", "setting": "[1]", "result": "24 to 48", "unit": "h"}]}
{"molecule": "rHuPH20: soluble hyaluronidase composition produced upon expression in a mammalian cell of nucleic acid encoding residues 36-482 of SEQ ID NO:1 (protein, listed as Homo sapiens, precursor human PH20) LNFRAPPVIPNVPFLWAWNAPSEFCLGKFDEPLDMSLFSFIGSPRINATGQGVTIFYVDRLGYYPYIDSITGVTVNGGIPQKISLQDHLDKAKKDITFYMPVDNLGMAVIDWEEWRPTWARNWKPKDVYKNRSIELVQQQNVQLSLTEATEKAKQEFEKAGKDFLVETIKLGKLLRPNHLWGYYLFPDCYNHHYKKPGYNGSCFNVEIKRNDDLSWLWNESTALYPSIYLNTQQSPVAATLYVRNRVREAIRVSKIPDAKSPLPVFAYTRIVFTDQVLKFLSQDELVYTFGETVALGASGIVIWGTLSIMRSMKSCLLLDNYMETILNPYIINVTLAAKMCSQVLCQEQGVCIRKNWNSSDYLHLNPDNFAIQLEKGGKFTVRGKPTLEDLEQFSEKFYCSCYSTLSCKEKADVKDTDAVDVCIADGVCIDAFLKPPMETEEPQIFY", "values": [{"measurement": "subcutaneous doses shown to be well tolerated", "setting": "[2]", "result": "up to 96,000 U"}]}
